Assay results as given in publication PMC10762035, “Molecular basis of human trace amine-associated receptor 1 activation” (Nature Communications, 2024).
Residue numbers refer to the chain shown, from its start. Where “and” joins values, the source holds several entries; their conditions need not be identical. Identical values can stand only once. Like-named read-outs stand apart in the source and are kept apart here.

Tests used:
Assay type in all cases: cell-based
hTA1 I290Y = target: T1, hTA1 I290Y (Homo sapiens, UniProt Q96RJ0, I290Y); assay: GloSensor cAMP accumulation assay, I290Y mutant; conditions: for cAMP accumulation response, normalized (concentration-response source data, single replicate values): hTA1 I290Y (N=3), log[Compound];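 for cAMP accumulation response, normalized (concentration-response source data, single replicate values): normalized to the maximum response of β-PEA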
T1 construct: expressed in transfected cells; host or cells: HEK293T
T1 sequence (Q96RJ0 1-339 I290Y): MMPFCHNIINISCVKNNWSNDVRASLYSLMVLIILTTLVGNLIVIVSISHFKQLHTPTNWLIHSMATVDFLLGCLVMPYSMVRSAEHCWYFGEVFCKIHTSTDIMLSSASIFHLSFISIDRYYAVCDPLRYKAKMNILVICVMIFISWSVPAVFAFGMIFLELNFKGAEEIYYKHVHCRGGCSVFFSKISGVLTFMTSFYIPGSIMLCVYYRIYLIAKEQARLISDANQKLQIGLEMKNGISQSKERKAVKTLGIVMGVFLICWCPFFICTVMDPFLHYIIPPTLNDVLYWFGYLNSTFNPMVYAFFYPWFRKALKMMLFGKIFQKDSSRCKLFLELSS

hTA1 V184P = target: T2, hTA1 V184P (Homo sapiens, UniProt Q96RJ0, V184P); assay: GloSensor cAMP accumulation assay, V184P mutant; conditions: for cAMP accumulation response, single replicate values (source data, Supplementary Figure 5): hTA1 V184P (N=2), log[Compound]
T2 construct: expressed in transfected cells; host or cells: HEK293T
T2 sequence (Q96RJ0 1-339 V184P): T1 sequence (Q96RJ0 1-339 I290Y) with V184P, Y290I

hTA1 b2N = target: T3, hTA1 b2N (Homo sapiens, UniProt Q96RJ0); assay: GloSensor cAMP accumulation assay, b2N construct
T3 construct: read by me as the first 25 residues of β2AR (N); expressed in transfected cells; host or cells: HEK293T

hTA1 C88S = target: T4, hTA1 C88S (Homo sapiens, UniProt Q96RJ0, C88S); assay: GloSensor cAMP accumulation assay, C88S mutant
T4 construct: expressed in transfected cells; host or cells: HEK293T
T4 sequence (Q96RJ0 1-339 C88S): T1 sequence (Q96RJ0 1-339 I290Y) with C88S, Y290I

hTA1 F195T = target: T5, hTA1 F195T (Homo sapiens, UniProt Q96RJ0, F195T); assay: GloSensor cAMP accumulation assay, F195T mutant;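 note: cells transiently co-expressing HA-FLAG-tagged hTA1 and the GloSensor cAMP biosensor, luminescence read 30 min after agonist addition at room temperature, concentration-response fitted by nonlinear regression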
T5 construct: expressed in transfected cells; host or cells: HEK293T
T5 sequence (Q96RJ0 1-339 F195T): T1 sequence (Q96RJ0 1-339 I290Y) with F195T, Y290I

hTA1 C13S = target: T6, hTA1 C13S (Homo sapiens, UniProt Q96RJ0, C13S); assay: GloSensor cAMP accumulation assay, C13S mutant; conditions: for C13S - Normalized Luminescence Counts (N=2): log[Compound], single wells
T6 construct: expressed in transfected cells; host or cells: HEK293T
T6 sequence (Q96RJ0 1-339 C13S): T1 sequence (Q96RJ0 1-339 I290Y) with C13S, Y290I

[1] = read-out: Span ± SEM (Emax normalized to β-PEA)

T3 sequence (Q96RJ0 with tags, fused parts or gaps): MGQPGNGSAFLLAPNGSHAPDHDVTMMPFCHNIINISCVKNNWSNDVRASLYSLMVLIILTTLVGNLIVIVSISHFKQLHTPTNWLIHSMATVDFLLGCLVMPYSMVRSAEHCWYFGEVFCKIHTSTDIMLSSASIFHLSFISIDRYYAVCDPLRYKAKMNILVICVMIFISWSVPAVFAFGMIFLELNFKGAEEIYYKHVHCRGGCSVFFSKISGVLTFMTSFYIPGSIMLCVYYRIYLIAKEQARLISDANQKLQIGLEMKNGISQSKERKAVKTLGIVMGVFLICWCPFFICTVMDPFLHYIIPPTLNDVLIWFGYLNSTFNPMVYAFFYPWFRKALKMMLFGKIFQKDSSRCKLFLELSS

CCC(CC1COC(N)=N1)c1ccccc1 (stereo not shown) [Ro5256390]
EC50 (hTA1 I290Y; EC50, I290Y): 3.79 nM
Emax values, Mean (hTA1 I290Y; I290Y, single experiments (3 replicates each), β-PEA = 100): 89.4977 and 95.7835 and 67.042
cAMP accumulation response, normalized (concentration-response source data, single replicate values) (hTA1 I290Y; M = -5): 116.004 and 90.4575 and 99.9991 and 95.6306 and 94.8977 and 106.257 and 79.386 and 92.9217 and 71.4902
cAMP accumulation response, normalized (concentration-response source data, single replicate values) (hTA1 I290Y; M = -5.522): 112.926 and 87.6874 and 89.8419 and 104.792 and 95.2641 and 96.3635 and 62.4664 and 47.8027 and 61.3384
cAMP accumulation response, normalized (concentration-response source data, single replicate values) (hTA1 I290Y; M = -6): 83.3783 and 72.6056 and 91.3809 and 91.5998 and 83.1717 and 95.997 and 59.0825 and 62.4664 and 68.1063
cAMP accumulation response, normalized (concentration-response source data, single replicate values) (hTA1 I290Y; M = -6.522): 92.9198 and 66.4498 and 97.2289 and 82.4388 and 92.3327 and 95.997 and 63.5944 and 55.6986 and 61.3384
cAMP accumulation response, normalized (concentration-response source data, single replicate values) (hTA1 I290Y; M = -7): 110.156 and 60.6017 and 92.3043 and 89.4012 and 82.4388 and 95.997 and 47.8027 and 61.3384 and 55.6986
cAMP accumulation response, normalized (concentration-response source data, single replicate values) (hTA1 I290Y; M = -7.522): 92.6121 and 50.1368 and 96.6133 and 79.5073 and 85.3703 and 95.2641 and 50.0587 and 56.8265 and 52.3146
cAMP accumulation response, normalized (concentration-response source data, single replicate values) (hTA1 I290Y; M = -8): 93.8432 (2×) and 82.1471 and 71.4457 and 85.3703 and 69.6135 and 30.8831 (2×) and 25.2433
cAMP accumulation response, normalized (concentration-response source data, single replicate values) (hTA1 I290Y; M = -8.522): 58.1394 and 51.6758 and 54.7537 and 45.0622 and 47.6273 and 45.4287 and 15.0915 and 9.4516 and 13.9635
cAMP accumulation response, normalized (concentration-response source data, single replicate values) (hTA1 I290Y; M = -9): 42.442 and 23.359 and 39.3641 and 21.9767 and 28.939 and 28.2061 and 3.812 and 2.684 and 9.4516
cAMP accumulation response, normalized (concentration-response source data, single replicate values) (hTA1 I290Y; M = -9.522): 12.5863 and 7.046 and 12.2785 and 10.9836 and 8.785 and 11.7164 and -2.956 and -1.828 and 0.4278
cAMP accumulation response, normalized (concentration-response source data, single replicate values) (hTA1 I290Y; M = -10): 11.6629 and 9.816 and 11.9707 and -2.575 and -0.376 and 1.456 and 0.4278 and -0.7002 and -1.828
cAMP accumulation response, normalized (concentration-response source data, single replicate values) (hTA1 I290Y; M = -10.522): 3.045
EC50 (hTA1 I290Y; pEC50 values, Mean, I290Y, single experiments (3 replicates each)): 1.77 nM and 2.74 nM and 11.3 nM
EC50 (hTA1 I290Y; pEC50 ± SEM, I290Y): 3.8 nM
Emax (hTA1 I290Y; [1]): 84.1 ± 8.72%
cAMP accumulation response, single replicate values (source data, Supplementary Figure 5) (hTA1 V184P; M = -5): 85.3904 and 101.684 and 66.3809 and 100.697 and 92.817 and 97.6917
cAMP accumulation response, single replicate values (source data, Supplementary Figure 5) (hTA1 V184P; M = -5.522): 66.0899 and 55.7123 and 71.6182 and 88.7852 and 51.5463 and 90.3979
cAMP accumulation response, single replicate values (source data, Supplementary Figure 5) (hTA1 V184P; M = -6): 83.0627 and 77.3404 and 73.6549 and 87.3191 and 55.1749 and 91.0943
cAMP accumulation response, single replicate values (source data, Supplementary Figure 5) (hTA1 V184P; M = -6.522): 79.7651 and 75.3037 and 85.0024 and 81.1248 and 49.1639 and 85.8896
cAMP accumulation response, single replicate values (source data, Supplementary Figure 5) (hTA1 V184P; M = -7): 89.6578 and 72.685 and 93.7313 and 87.2824 and 64.0448 and 74.7473
cAMP accumulation response, single replicate values (source data, Supplementary Figure 5) (hTA1 V184P; M = -7.522): 94.3132 and 66.4779 and 74.3338 and 84.4969 and 64.0814 and 78.046
cAMP accumulation response, single replicate values (source data, Supplementary Figure 5) (hTA1 V184P; M = -8): 62.0164 and 54.6454 and 40.6793 and 78.3026 and 66.3539 and 77.7161
cAMP accumulation response, single replicate values (source data, Supplementary Figure 5) (hTA1 V184P; M = -8.522): 37.1877 and 24.6764 and 37.2847 and 29.115 and 34.8328 and 41.87
cAMP accumulation response, single replicate values (source data, Supplementary Figure 5) (hTA1 V184P; M = -9): 15.9475 and 18.9541 and 11.3891 and 32.8169 and 25.9629 and 26.2194
cAMP accumulation response, single replicate values (source data, Supplementary Figure 5) (hTA1 V184P; M = -9.522): 4.018 and 3.436 and 4.212 and 11.3752 and 7.6 and 9.799
cAMP accumulation response, single replicate values (source data, Supplementary Figure 5) (hTA1 V184P; M = -10): 0.7205 and 0.9145 and 0.5265 and 3.678 and 2.945 and 4.778
cAMP accumulation response, single replicate values (source data, Supplementary Figure 5) (hTA1 V184P; M = -10.522): -0.3463 and -0.9283 and 0.2356 and 0.1229 and 0.08625 and 0.5627
cAMP accumulation response, single replicate values (source data, Supplementary Figure 5) (hTA1 V184P; M = -11): -1.316 (2×) and -1.4132 and 1.516 and -0.5368 and 1.039
cAMP accumulation response, single replicate values (source data, Supplementary Figure 5) (hTA1 V184P; M = -11.522): -1.51 and -1.219 and -1.704 and 2.615 and 1.516 and 1.552
cAMP accumulation response, single replicate values (source data, Supplementary Figure 5) (hTA1 V184P; M = -12): -1.316 and -1.51 and -1.801 and 15.6269 and 16.9097 and 12.5114
cAMP accumulation response, single replicate values (source data, Supplementary Figure 5) (hTA1 V184P; M = -12.522): -1.4132 and -1.51 and -0.9283 and 2.505 and 1.149 and 1.736
ΔpEC50 values (each mutant value - WT average), Mean (hTA1 V184P; hTA1 V184P mutant minus WT average): 0.1338 and 0.2823
Emax values, Mean (hTA1 V184P; hTA1 V184P mutant, β-PEA set to 100, each grid row a separate experiment, 3 replicates): 78.2024
EC50 (hTA1 V184P; pEC50 values (Mean), hTA1 V184P mutant, Figure 3B source data, each grid row a separate experiment, 3 replicates): 3.92 nM and 2.79 nM
EC50 (hTA1 V184P; pEC50 ± SEM, V184P, n=2): 3.31 nM
Emax (hTA1 V184P; read-out: Emax values (Mean), hTA1 V184P mutant, β-PEA set to 100, each grid row a separate experiment, 3 replicates): 81.5%
Emax (hTA1 V184P; read-out: Span ± SEM (Emax normalized to β-PEA), V184P, n=2): 79.8 ± 1.63%
EC50 (hTA1 b2N): 1.56 nM
Emax (hTA1 b2N; [1]): 97.7 ± 9.34%
Emax values (hTA1 C88S; C88S, Mean of fit per experiment): 141.143 and 102.28
Emax (hTA1 C88S; C88S, relative to β-PEA): 122%
EC50 (hTA1 C88S; pEC50 values, C88S, Mean of fit per experiment): 3.91 nM and 2.46 nM
EC50 (hTA1 C88S; pEC50 ± SEM, C88S, n=2): 3.09 nM
Emax (hTA1 C88S; read-out: Span ± SEM (Emax normalized to β-PEA), C88S, n=2): 122%
EC50 (hTA1 F195T; EC50, F195T, n=2): 2.9 nM
Emax values, Mean (hTA1 F195T; F195T mutant, Figure 5B, β-PEA = 100, each row one independent experiment (3 replicates)): 107.711
EC50 (hTA1 F195T; pEC50 values, Mean, F195T mutant, Figure 5B, each row one independent experiment (3 replicates)): 1.63 nM and 4.03 nM
Emax (hTA1 F195T; read-out: Emax values, Mean, F195T mutant, Figure 5B, β-PEA = 100, each row one independent experiment (3 replicates)): 105%
Emax (hTA1 F195T; read-out: Span ± SEM (Emax normalized to β-PEA), F195T, n=2): 106 ± 1.33%
ΔpEC50 values (each mutant value - WT average) (hTA1 C13S; C13S): -0.1093 and -0.3651
Emax values (hTA1 C13S; C13S, Mean of fit per experiment): 104.119
EC50 (hTA1 C13S; EC50, C13S, n=2): 9.21 nM
C13S - Normalized Luminescence Counts (N=2) (hTA1 C13S; M = -5): 108.406 and 95.388 and 120.776 and 112.887 and 109.603 and 114.083
C13S - Normalized Luminescence Counts (N=2) (hTA1 C13S; M = -5.522): 112.25 and 104.067 and 102.43 and 107.496 and 95.9649 and 109.96
C13S - Normalized Luminescence Counts (N=2) (hTA1 C13S; M = -6): 90.5159 and 87.1282 and 84.9205 and 101.909 and 92.8231 and 104.73
C13S - Normalized Luminescence Counts (N=2) (hTA1 C13S; M = -6.522): 96.2254 and 77.4601 and 94.8551 and 102.052 and 85.8613 and 107.282
EC50 (hTA1 C13S; pEC50 values, Mean, hTA1 C13S, mean of 3 replicates, one line per independent experiment): 6.86 nM and 12.4 nM
Emax (hTA1 C13S; read-out: Emax values, C13S, Mean of fit per experiment): 96.6%
Emax (hTA1 C13S; read-out: Span ± SEM (Emax normalized to β-PEA), C13S, n=2): 100 ± 3.73%
